Legend:
[1] = test system: PPARγ; design: species or system Wistar Rat; details: rat, in vivo
Experimental: Next, change in gene expression in a tissue was checked. As a subject, 12 weeks old Wistar Rat (male) was used. Regarding a 2.5 µg/portion administration group, three regions were set on the back from the head to the tail, and each of these regions was divided into two regions on both left and right sides of the spine to set six regions on the back in total. In such an administration group, PG was administered to two portions around the center of each of the six regions. Specifically, in the 2.5 µg/portion administration group (n = 3), 2.5 µg (20 µL) of PG was administered per portion. Besides, regarding a 0.1 µg/portion administration group and a 0.02 µg/portion administration group, two regions were set from the head to the tail, and each of these regions was divided into two regions on both left and right sides of the spine, and thus, four regions in total were set on the back. […]
The collected tissue piece was frozen with liquid nitrogen, and stored at -80° C. […] For gene expression analysis by quantitative PCR, design and synthesis of a gene specific primer and a probe were entrusted to Integrated DNA Technologies, Inc. (Skokie, IL, USA), and an expression level of a target gene was analyzed with Prime Time Gene Expression Master Mix reagent (Integrated DNA Technologies, Inc., Skokie, IL, USA) and a Rotor-Gene Q PCR device (QIAGEN GmbH, Hilden, Germany). […]

[2] = test system: CD68; assay: Gene expression in human scalp tissue after pioglitazone treatment (qPCR); type: in vivo; details: whole scalp three times once every two months, before vs 6 months after first treatment
Experimental: (§1) A human subject was also checked. A suspension of pioglitazone was prepared in the same manner as in Example 2, and the whole amount of the suspension was applied to the head of a human subject. The PG treatment was performed on the whole scalp three times at a frequency of once every two months. A tissue around the test site was collected with a 3 mm punch before the treatment and 2 months after performing the treatment three times (6 months after the first treatment). The collected tissue was halved, and one half was fixed with 10% formalin, and stored under refrigeration. The other half was immersed in RNA Stabilization Solution (RNAlater, Thermo Fisher Scientific, Lithuania), and the resultant was frozen in liquid nitrogen, and stored at -80° C. Thereafter, the gene expression analysis was performed in the same manner as the rat gene expression analysis.
(§2) A difference (ΔCt), in an expression level of mRNA, between ribosomal protein lateral stalk subunit P0 (Rp1P0) of a housekeeping gene and the target gene (average of Ct obtained from the qPCR reaction of each gene performed three times) was calculated, and in addition, a difference (ΔΔCt) in ΔCt between samples of the subject to be analyzed obtained before and after the treatment and a control (two persons not treated) was calculated. […]

[3] = test system: CD163; assay: as above; type: in vivo; details: whole scalp three times once every two months, before vs 6 months after first treatment
Experimental: as §1, §2

CCc1ccc(CCOc2ccc(CC3SC(=O)NC3=O)cc2)nc1 (stereo not drawn) [pioglitazone]
found to increase: expression of PPARγ [1] | expression of CD68 [2] | expression of CD163 [3]
